Assay results as given in publication PMC11375702, “Early Preclinical Studies of Ergosterol Peroxide and Biological Evaluation of Its Derivatives” (ACS Omega, 2024).
Where two headings read alike, the source gives them in different places.

How the values were obtained:
[1] = target: T1, CYP2C19 (Homo sapiens, UniProt P33261); assay: Microsomal CYP inhibition assay, CYP2C19; type: in vitro ADME; conditions: pooled human liver microsomes, probe mephenytoin; read-out: CYP-2C19 inhibition
T1 construct: from tissue; host or cells: pooled human liver microsomes
T1 sequence (P33261 whole entry): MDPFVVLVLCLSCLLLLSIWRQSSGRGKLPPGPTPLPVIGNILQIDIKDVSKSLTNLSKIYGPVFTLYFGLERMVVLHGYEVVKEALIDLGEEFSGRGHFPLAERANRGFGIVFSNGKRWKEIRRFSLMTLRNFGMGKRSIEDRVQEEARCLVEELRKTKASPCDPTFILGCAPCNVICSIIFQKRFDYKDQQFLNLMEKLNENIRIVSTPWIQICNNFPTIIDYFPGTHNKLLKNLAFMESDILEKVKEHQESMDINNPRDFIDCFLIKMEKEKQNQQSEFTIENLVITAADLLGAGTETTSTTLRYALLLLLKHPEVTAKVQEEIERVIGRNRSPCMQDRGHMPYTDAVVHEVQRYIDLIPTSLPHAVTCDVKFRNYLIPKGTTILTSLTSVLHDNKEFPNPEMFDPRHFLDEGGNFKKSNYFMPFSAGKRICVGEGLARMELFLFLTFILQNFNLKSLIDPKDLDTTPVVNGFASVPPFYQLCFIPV
Protocol: (§1) To assess potential cardiotoxicity, we performed the human ether-go-go-related gene (hERG) inhibition assay. […] Briefly, EP was tested at six concentrations (cumulative concentration–response). […] For hepatotoxicity determination, we performed the microsomal CYP inhibition assay. Briefly, EP was incubated at seven increasing concentrations with pooled human liver microsomes. […] The supernatants were analyzed by LC-MS/MS.

[2] = target: T2, CYP3A4 (Homo sapiens, UniProt P08684); assay: Microsomal CYP inhibition assay, CYP3A4; type: in vitro ADME; conditions: pooled human liver microsomes
T2 construct: from tissue; host or cells: pooled human liver microsomes
T2 sequence (P08684 whole entry): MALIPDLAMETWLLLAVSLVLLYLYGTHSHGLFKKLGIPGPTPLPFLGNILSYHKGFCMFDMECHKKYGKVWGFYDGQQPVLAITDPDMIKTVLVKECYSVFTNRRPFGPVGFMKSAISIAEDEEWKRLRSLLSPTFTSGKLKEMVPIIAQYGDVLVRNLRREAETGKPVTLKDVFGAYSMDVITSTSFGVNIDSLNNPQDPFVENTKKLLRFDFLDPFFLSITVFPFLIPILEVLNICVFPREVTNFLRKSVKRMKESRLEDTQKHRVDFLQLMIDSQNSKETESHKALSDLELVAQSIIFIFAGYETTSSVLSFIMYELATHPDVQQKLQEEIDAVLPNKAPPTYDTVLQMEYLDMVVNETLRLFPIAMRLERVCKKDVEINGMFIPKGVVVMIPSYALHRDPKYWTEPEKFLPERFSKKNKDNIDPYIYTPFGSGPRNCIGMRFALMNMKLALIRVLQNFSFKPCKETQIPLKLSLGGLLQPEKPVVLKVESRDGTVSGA
Protocol: as §1

[3] = target: T3, CYP1A2 (Homo sapiens, UniProt P05177); assay: Microsomal CYP inhibition assay, CYP1A2; type: in vitro ADME; conditions: pooled human liver microsomes, probe tacrine
T3 construct: from tissue; host or cells: pooled human liver microsomes
T3 sequence (P05177 1-516): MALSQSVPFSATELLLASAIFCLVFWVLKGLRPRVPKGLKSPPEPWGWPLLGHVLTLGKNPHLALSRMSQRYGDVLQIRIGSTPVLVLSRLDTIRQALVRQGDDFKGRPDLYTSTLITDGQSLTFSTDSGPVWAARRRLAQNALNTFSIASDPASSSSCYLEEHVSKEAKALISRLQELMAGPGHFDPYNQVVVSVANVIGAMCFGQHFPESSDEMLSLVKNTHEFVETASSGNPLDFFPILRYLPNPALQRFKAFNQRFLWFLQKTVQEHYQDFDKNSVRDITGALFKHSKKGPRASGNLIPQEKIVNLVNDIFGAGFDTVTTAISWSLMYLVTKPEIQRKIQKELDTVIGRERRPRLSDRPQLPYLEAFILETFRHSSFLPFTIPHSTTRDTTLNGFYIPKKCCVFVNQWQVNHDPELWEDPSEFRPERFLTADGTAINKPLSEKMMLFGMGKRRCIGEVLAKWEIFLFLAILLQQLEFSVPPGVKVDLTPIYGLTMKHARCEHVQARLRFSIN
Protocol: as §1

[4] = target: T4, CYP2C8 (Homo sapiens, UniProt P10632); assay: Microsomal CYP inhibition assay, CYP2C8; type: in vitro ADME; conditions: pooled human liver microsomes, probe amodiaquine
T4 sequence (P10632 1-490): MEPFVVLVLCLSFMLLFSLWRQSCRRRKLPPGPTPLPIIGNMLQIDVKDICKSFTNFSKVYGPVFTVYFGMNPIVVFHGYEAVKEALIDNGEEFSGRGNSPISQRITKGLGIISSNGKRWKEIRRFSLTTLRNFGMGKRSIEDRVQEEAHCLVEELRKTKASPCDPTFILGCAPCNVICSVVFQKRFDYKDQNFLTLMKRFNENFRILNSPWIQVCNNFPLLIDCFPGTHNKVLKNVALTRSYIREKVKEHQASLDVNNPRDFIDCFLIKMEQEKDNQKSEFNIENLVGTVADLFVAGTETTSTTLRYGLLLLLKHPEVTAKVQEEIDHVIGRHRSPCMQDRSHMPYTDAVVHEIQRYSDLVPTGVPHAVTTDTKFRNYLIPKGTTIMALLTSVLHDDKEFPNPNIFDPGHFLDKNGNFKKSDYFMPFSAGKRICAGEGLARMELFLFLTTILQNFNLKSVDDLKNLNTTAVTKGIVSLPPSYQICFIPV
Protocol: as §1

[5] = Plasma stability assay (mouse)
Protocol: Briefly, pooled blood from 3 animals for experiment (male Balb/c 6–8w from the division of laboratory animal medicine in-house breeding colony) was collected, and the heparinized plasma was prepared. Plasma and test compounds were added to individual wells of a 96-well microtiter plate. Compounds were incubated at 37 °C for the provided time points. All tests were performed in triplicates. The test compound was incubated with plasma at six different time points. The reaction was terminated by methanol containing an internal standard. After centrifugation, the concentration of the test compound in the supernatant was quantified by LC-MS/MS.
Plasma stability assay: Briefly, pooled blood from 3 animals for experiment (male Balb/c 6-8w
from the division of laboratory animal medicine in-house breeding colony) was collected, and
the heparinized plasma was prepared. Plasma and test compounds were added to the individual
wells of a 96-well microtiter plate. Compounds were incubated at 37°C for the provided time
points. All tests were performed in triplicates. Then, the test compound was incubated with
plasma at six different time points. The reaction was terminated by the addition of methanol
containing an internal standard. After centrifugation, the concentration of the test compound in
the supernatant was quantified by LC-MS/MS. The percentage of test compound remaining at
compounds are known to be metabolized by plasma esterases,1 and were also incubated with
each batch of test compound.
A standard protocol and MS method was used for the plasma stability experiment. The extraction
procedure for plasma/tissue samples and the spiked plasma/tissue calibration standards were
identical: A 25 µL of study sample or spiked plasma/tissue calibration standard was added to
individual pre-labeled micro-centrifuge tubes followed by 100 µL of internal standard prepared
in Acetonitrile (Albendazole, 500 ng/mL) was added except for blank, where 100 µL of
Acetonitrile was added. Samples were vortexed for 5 minutes. Samples were centrifuged for 5
minutes at a speed of 4000 rpm at 4°C. Following centrifugation, 100 µL of clear supernatant
was transferred in 96 well plates and analyzed using LC-MS/MS mode. The LC system
comprises of a binary pump that can mix two mobile phases: A = Water+0.1% formic acid; B =
acetonitrile +0.1%formic acid. The system was operated in gradient mode using a 6 minute
min, 10-90% A to B in 5.5-6 min, and then hold at this gradient, using a Phenomenex Luna, 150
X 4.6 mm, 5 µm column. Source Parameter: positive, Ion Spray Voltage 5500, Temperature
550C, interface heater on.

[6] = Maximum tolerated dose (MTD) study, single oral dose; type: in vivo, mouse; conditions: for Gross pathology, External Abnormalities: No Abnormality Detected (number of mice) / Gross pathology, Internal Abnormalities: No Abnormality Detected (number of mice): 6 mice examined
Protocol: The study was conducted according to published and acceptable experimental conditions reported.[53] Animal protocols approved by LSU#IACUCAM21065 and UCC# 037–2021–16–01-PHA-IBC. Briefly, male and female Balb/c mice were given a single oral dose administration of ergosterol peroxide to C57BL/6 female and male mice (5–8 weeks old), followed by 7 days postdose observations. Toxicity is defined as a 20% loss of body weight. The study comprised three groups for a toxicity phase including: one control and two EP-treated groups (G2 and G3), having 6 mice/sex/group. Mice from groups G2 (300 mg/kg BW) and G3 (500 mg/kg BW) were administered an EP uniform suspension (light yellow), once by oral gavage. The mice from the control group (G1) received a 1% v/v Tween 80 and 0.5% w/v NaCMC in the RO water suspension. The dosing volume was kept constant at 10 mL/kg for each mouse. Then, animals were euthanized, and organs (liver, lung, heart, and kidney) were collected to check global signs of toxicity. Parameters evaluated included observation for clinical signs, body weight, body weight gain, feed consumption, clinical chemistry, and gross pathology. The total animals per MTD was 36 mice.

CC(C)[C@@H](C)/C=C/[C@@H](C)[C@H]1CC[C@@H]2[C@]1(C)CC[C@H]1[C@]23C=C[C@]2(C[C@@H](O)CC[C@]12C)OO3 [Compound 2, Ergosterol peroxide]
IC50 [1]: 19.9 µM
IC50 ([2]; probe midazolam, read-out: CYP3A4-Midazolam inhibition): > 25 µM
IC50 ([2]; probe testosterone, read-out: CYP3A4-Testos-terone inhibition): > 25 µM
IC50 [3]: 16.3 µM
IC50 [4]: 9.9 µM
half-life ([5]; male, Balb/c, mouse, plasma): > 48 h
plasma stability ([5]; species not specified): > 48 h
decrease in albumin vs vehicle control ([6]; 300 mg/kg (G2), male mice): 6%
decrease in triglycerides vs vehicle control ([6]; 500 mg/kg (G3), male mice): 19%
MTD at 7 days ([6]; both sexes, mouse, in vivo, single oral dose, male or female mice): > 500 mg/kg
ALB, mean ([6]; female, 300 mg/kg): 3.08 g/dL
ALP, mean ([6]; female, 300 mg/kg): 394.32 U/L
ALT, mean ([6]; female, 300 mg/kg): 44.99 U/L
AST, mean ([6]; female, 300 mg/kg): 88.20 U/L
BUN, mean ([6]; female, 300 mg/kg): 16.45 mg/dL
CREA, mean ([6]; female, 300 mg/kg): 0.21 mg/dL
TGL, mean ([6]; female, 300 mg/kg): 38.15 mg/dL
Gross pathology, External Abnormalities: No Abnormality Detected (number of mice) ([6]; female, 300 mg/kg): 6
Body Weight, mean ([6]; female, 300 mg/kg, day 1): 21.05 g
Food Consumption, Average Feed Intake/ Animal ([6]; female, 300 mg/kg, day 1 to 4): 12.3 g/Animal
Body Weight, mean ([6]; female, 300 mg/kg, day 4): 21.15 g
Food Consumption, Average Feed Intake/ Animal ([6]; female, 300 mg/kg, day 4 to 7): 12.2 g/Animal
Body Weight, mean ([6]; female, 300 mg/kg, day 7): 21.45 g
ALB, mean ([6]; female, 500 mg/kg): 3.03 g/dL
ALP, mean ([6]; female, 500 mg/kg): 400.51 U/L
ALT, mean ([6]; female, 500 mg/kg): 47.50 U/L
AST, mean ([6]; female, 500 mg/kg): 75.14 U/L
BUN, mean ([6]; female, 500 mg/kg): 17.63 mg/dL
CREA, mean ([6]; female, 500 mg/kg): 0.20 mg/dL
TGL, mean ([6]; female, 500 mg/kg): 30.51 mg/dL
Gross pathology, External Abnormalities: No Abnormality Detected (number of mice) ([6]; female, 500 mg/kg): 6
Body Weight, mean ([6]; female, 500 mg/kg, day 1): 21.27 g
Food Consumption, Average Feed Intake/ Animal ([6]; female, 500 mg/kg, day 1 to 4): 12.3 g/Animal
Body Weight, mean ([6]; female, 500 mg/kg, day 4): 21.17 g
Food Consumption, Average Feed Intake/ Animal ([6]; female, 500 mg/kg, day 4 to 7): 11.8 g/Animal
Body Weight, mean ([6]; female, 500 mg/kg, day 7): 21.53 g
ALB, mean ([6]; male, 300 mg/kg): 2.91 g/dL
ALP, mean ([6]; male, 300 mg/kg): 312.51 U/L
ALT, mean ([6]; male, 300 mg/kg): 34.83 U/L
AST, mean ([6]; male, 300 mg/kg): 47.80 U/L
BUN, mean ([6]; male, 300 mg/kg): 16.45 mg/dL
CREA, mean ([6]; male, 300 mg/kg): 0.17 mg/dL
TGL, mean ([6]; male, 300 mg/kg): 51.23 mg/dL
Gross pathology, External Abnormalities: No Abnormality Detected (number of mice) ([6]; male, 300 mg/kg): 6
Gross pathology, Internal Abnormalities: No Abnormality Detected (number of mice) ([6]; male, 300 mg/kg): 6
Body Weight, mean ([6]; male, 300 mg/kg, day 1): 21.85 g
Food Consumption, Average Feed Intake/ Animal ([6]; male, 300 mg/kg, day 1 to 4): 14.9 g/Animal
Body Weight, mean ([6]; male, 300 mg/kg, day 4): 22.28 g
Food Consumption, Average Feed Intake/ Animal ([6]; male, 300 mg/kg, day 4 to 7): 14.6 g/Animal
Body Weight, mean ([6]; male, 300 mg/kg, day 7): 23.03 g
ALB, mean ([6]; male, 500 mg/kg): 3.03 g/dL
ALP, mean ([6]; male, 500 mg/kg): 412.86 U/L
ALT, mean ([6]; male, 500 mg/kg): 54.07 U/L
AST, mean ([6]; male, 500 mg/kg): 91.50 U/L
BUN, mean ([6]; male, 500 mg/kg): 17.06 mg/dL
CREA, mean ([6]; male, 500 mg/kg): 0.17 mg/dL
TGL, mean ([6]; male, 500 mg/kg): 46.91 mg/dL
Gross pathology, External Abnormalities: No Abnormality Detected (number of mice) ([6]; male, 500 mg/kg): 6
Gross pathology, Internal Abnormalities: No Abnormality Detected (number of mice) ([6]; male, 500 mg/kg): 6
Body Weight, mean ([6]; male, 500 mg/kg, day 1): 22.62 g
Food Consumption, Average Feed Intake/ Animal ([6]; male, 500 mg/kg, day 1 to 4): 10.4 g/Animal
Body Weight, mean ([6]; male, 500 mg/kg, day 4): 22.70 g
Food Consumption, Average Feed Intake/ Animal ([6]; male, 500 mg/kg, day 4 to 7): 13.7 g/Animal
Body Weight, mean ([6]; male, 500 mg/kg, day 7): 22.27 g
clinical signs ([6]; oral, 300 and 500 mg/kg, mice): no abnormal clinical signs
